Square brackets hold non-standard residues; d marks the D form. Ends that are not written are not given here.
Legend:
[1] = system: MDA-MB-231 human breast cancer cell line; experiment: Caspase 3/7 Activity in MDA-MB-231 Cells (Caspase-Glo 3/7 Assay); format: cell-based; conditions: test peptides at 10 μM, 18 hours, relative to DMSO control
Procedure: The effect of the peptides on cell death/survival can be assessed using a caspase-3 assay. Peptides were dissolved with DMSO at 10 mM stock. […] Staurosporine (Selleckchem) was dissolved with DMSO at 1 mM stock. Caspase-Glo 3/7 Assay Reagent was purchased from Promega (Madison, Wis.). MDA-MB-231 human breast cancer cell line was purchased from American Type Culture Collection (Manassas, Va.). MDA-MB-231 cells were grown in DMEM Medium supplemented with 10% FBS. 100 μg/ml penicillin and 100 μg/ml streptomycin were added to the culture medium. […] 25 μl of Caspase-Glo 3/7 Assay Reagent was added to each well and incubated at 37° C., 5% CO2 for 1 hour. Luminescence for each sample well on the plate was measured by Envision 2104 Multilabel Reader (PerkinElmer, Santa Clara, Calif.). Activity was calculated relative to DMSO control.

[2] = system: MDA-MB-231 human breast cancer cell line; experiment: MTS Assay in MDA-MB-231 Cells (cell viability); format: cell-based; conditions: 72 hours, relative to DMSO control; test concentration not given
Procedure: (§1) Test compounds and reference compound staurosporine (Selleckchem) were all dissolved with DMSO at 10 mM stock. […] Activity was calculated relative to DMSO control. […] Cell viability was 3% of the DMSO control value for Staurosporine (10 uM).

[3] = system: MCF-7 human breast cancer cell line; experiment: MTS Assay in MCF-7 Cells (cell viability); conditions: test peptides at 10 μM, 72 hours, relative to DMSO control
Procedure: (§2) Peptides and reference compound staurosporine (Selleckchem) were dissolved with DMSO at 10 mM stock. CellTiter 96® AQueous One Solution Reagent (MTS assay reagent) was purchased from Promega (Madison, Wis.). MCF-7 human breast cancer cell line was purchased from American Type Culture Collection (Manassas, Va.). MCF-7 cells were grown in EMEM Medium supplemented with 10% FBS and 0.01 mg/ml human recombinant insulin. 100 μg/ml penicillin and 100 μg/ml streptomycin were added to the culture medium. […] 5 μl of CellTiter 96® AQueous One Solution Reagent (MTS assay reagent) was added to each well and incubated at 37° C., 5% CO2 for 5 hours. Absorbance at 492 nm was recorded by Envision 2104 Multilabel Reader. Treatment with DMSO alone was used as the cell viability activity control.

Mouse 3T3-L1 adipocytes = experiment: Free Fatty Acid Levels in 3T3-L1 Adipocytes; conditions: for Free Fatty Acid Levels in 3T3-L1 Adipocytes Expressed as a Percent Isoproterenol Control, Percent of Control Activity: test peptides 25 μM, 20-22 hours then isoproterenol (1 nM) 3 hours
Procedure: Mouse 3T3-L1 adipocytes were seeded at 3,000 cells per well in 96-well plates in Pre-adipocyte Medium (Zen-Bio, Durham, N.C.) and grown to confluence at 37° C. in a humidified atmosphere of 5% CO2/95% air. Two days after confluence, cells were placed in Adipocyte Differentiation Medium (Zen-Bio, Durham, N.C.) and cultured for three additional days at 37° C. in a humidified atmosphere of 5% CO2/95% air. The culture media was then replaced with Adipocyte Maintenance Medium (Zen-Bio) and the cells maintained for an additional 9-12 days at 37° C. in a humidified atmosphere of 5% CO2/95% air with partial medium replacement every other day. Following 12-15 days' differentiation, test peptides were added to a final concentration of 25 μM and incubated for 20-22 hours in Adipocyte Maintenance Medium. After 20-22 hours, isoproterenol (1 nM) was added to all wells except untreated controls and test peptides were replenished. Cells were incubated for a further 3 hours in Assay Buffer (Zen-Bio). Free fatty acid concentrations in the media were determined using a Free Fatty Acid Assay Kit (Zen-Bio) according to the manufacturer's instructions using a plate reader (540 nm). Absorbance values were corrected for untreated background and expressed relative to isoproterenol treated cells. Treatment with isoproterenol (1 nM) alone was used as the free fatty acid level stimulatory control. The relative standard deviation of the isoproterenol control was <10%.

[4] = MTS Assay in MDA-MB-231 Cells (cell viability); format: cell-based, human; conditions: human; Staurosporine 10 uM, positive control, MDA-MB-231 cells; read-out: Cell viability, % of the DMSO control value
Procedure: as §1

[5] = MTS Assay in MCF-7 Cells (cell viability); conditions: human
Procedure: as §2

| Compound | Free Fatty Acid Levels in 3T3-L1 Adipocytes Expressed as a Percent Isoproterenol Control, Percent of Control Activity (Mouse 3T3-L1 adipocytes) | also measured |
| --- | --- | --- |
| 2 (MTHQSHAYHIVKPSP) [compound 2] | 95% | Caspase 3/7 Activity in MDA-MB-231 Cells, Percent of Control Activity [1]: 51%; MTS Assay in MDA-MB-231 Cells, Percent of Control Activity [2]: 85%; MTS Assay in MCF-7 Cells, Percent of Control Activity [3]: 71% |
| 3 (THQSHAYHIVKPSP; not fully specified) [compound 3] | 118% | – |
| 4 (THQSH[dA]YHIVKPSP) [compound 4] | 134% | – |
| 5 (HQSH[dA]YHIVKPSP) [compound 5] | 111% | – |
| 7 (MWFDYFCMSPSIDEGLTLLV) [compound 7] | 104% | Caspase 3/7 Activity in MDA-MB-231 Cells, Percent of Control Activity [1]: 29%; MTS Assay in MDA-MB-231 Cells, Percent of Control Activity [2]: 81%; MTS Assay in MCF-7 Cells, Percent of Control Activity [3]: 63% |
| 8 (WFDYFCMSPSIDEGLTLLV) [compound 8] | 45% | – |
| 9 (WFDYFCMSPSIDEGLTL) [compound 9] | 35% | – |
| 10 (WFDYFAMSPSADEGLTL) [compound 10] | 55% | – |
| 12 (MVKGDSKYSEACRRVK) [compound 12] | 135% | Caspase 3/7 Activity in MDA-MB-231 Cells, Percent of Control Activity [1]: 52%; MTS Assay in MDA-MB-231 Cells, Percent of Control Activity [2]: 80%; MTS Assay in MCF-7 Cells, Percent of Control Activity [3]: 50% |
| 13 (VKGDSKYSEACRRVK) [compound 13] | 113% | – |
| 14 (VKGDSKYSEACRRV) [compound 14] | 112% | – |
| 15 (VKGDSKYSEACR) [compound 15] | 128% | – |
| 17 (MVLFFRSSKLQYGRLFRSLVG) [compound 17] | 75% | Caspase 3/7 Activity in MDA-MB-231 Cells, Percent of Control Activity [1]: 43%; MTS Assay in MDA-MB-231 Cells, Percent of Control Activity [2]: 75%; MTS Assay in MCF-7 Cells, Percent of Control Activity [3]: 40% |
| 18 (VLFFRSSKLQYGRLFRSLVG) [compound 18] | 84% | – |
| 19 (VLFFRSSKLQYGRLFRSLA) [compound 19] | 95% | – |
| 20 (LFFRSSKLQYGRLFRSA) [compound 20] | 73% | – |
| 22 (MVWLRLSGSKVEWVWG) [compound 22] | 93% | Caspase 3/7 Activity in MDA-MB-231 Cells, Percent of Control Activity [1]: 31%; MTS Assay in MDA-MB-231 Cells, Percent of Control Activity [2]: 75%; MTS Assay in MCF-7 Cells, Percent of Control Activity [3]: 47% |
| 23 (VWLRLSGSKVEWVWG) [compound 23] | 71% | – |
| 24 (VWLRLSGSKVEWVW; not fully specified) [compound 24] | 81% | – |
| 25 ([dA]WLRLSGSKVEWV) [compound 25] | 93% | – |
| CN[C@@H]1C[C@H]2O[C@@](C)([C@@H]1OC)n1c3ccccc3c3c4c(c5c6ccccc6n2c5c31)C(=O)NC4 [staurosporine, reference compound] | – | viability at 72 h, 10 µM [4]: 3%; viability at 72 h, 10 µM [5]: < 5% |
| insulin [reference compound] | – | Free fatty acid levels, % of the isoproterenol control value (Mouse 3T3-L1 adipocytes; insulin 100 nM, positive control): < 5% |

Reference: patent US20220305079A1, “THERAPEUTIC PEPTIDES” (COHBAR, INC., priority 2019, published 2022)
